Reference: ChEMBL document CHEMBL2440076, “New triarylpyrazoles as broad-spectrum anticancer agents: design, synthesis, and biological evaluation” (Eur J Med Chem, 2013)

Assays:
Format in all cases: functional
[1] = test system: NCI-H460; experiment: Growth inhibition of human NCI-H460 cells assessed as cell growth at 5X10'-8 M after 48 hrs by sulforhodamine B assay; details: NCI-H460, 48 h, read-out: Activity
[2] = test system: CAKI-1; experiment: Growth inhibition of human CAKI-1 cells assessed as cell growth at 3X10'-9 M after 48 hrs by sulforhodamine B assay; details: CAKI-1, 48 h, read-out: Activity
[3] = Growth inhibition of human NCI-ADR-RES cells assessed as cell growth at 3X10'-9 M after 48 hrs by sulforhodamine B assay; details: read-out: Activity
[4] = test system: A549; experiment: Growth inhibition of human A549/ATCC cells assessed as cell growth at 3X10'-5 M after 48 hrs by sulforhodamine B assay; details: A549, 48 h, read-out: Activity
[5] = test system: HCT-116; experiment: Growth inhibition of human HCT116 cells assessed as cell growth at 3X10'-6 M after 48 hrs by sulforhodamine B assay; details: HCT-116, 48 h, read-out: Activity
[6] = test system: SN12C; experiment: Growth inhibition of human SN12C cells assessed as cell growth at 3X10'-7 M after 48 hrs by sulforhodamine B assay; details: read-out: Activity
[7] = test system: SK-MEL-2; experiment: Growth inhibition of human SK-MEL-2 cells assessed as cell growth at 3X10'-7 M after 48 hrs by sulforhodamine B assay; details: SK-MEL-2, 48 h, read-out: Activity
[8] = test system: COLO 205; experiment: Growth inhibition of human COLO205 cells assessed as cell growth at 3X10'-8 M after 48 hrs by sulforhodamine B assay; details: COLO 205, 48 h, read-out: Activity
[9] = test system: HOP-92; experiment: Growth inhibition of human HOP92 cells assessed as cell growth at 3X10'-7 M after 48 hrs by sulforhodamine B assay; details: HOP-92, 48 h, read-out: Activity
[10] = Growth inhibition of human HCC2998 cells assessed as cell growth at 3X10'-5 M after 48 hrs by sulforhodamine B assay; details: HCC 2998, 48 h, read-out: Activity
[11] = test system: PC-3; experiment: Growth inhibition of human PC3 cells assessed as cell growth at 3X10'-6 M after 48 hrs by sulforhodamine B assay; details: PC-3, 48 h, read-out: Activity
[12] = test system: PC-3; experiment: Growth inhibition of human PC3 cells assessed as cell growth at 3X10'-5 M after 48 hrs by sulforhodamine B assay; details: PC-3, 48 h, read-out: Activity
[13] = test system: HCT-116; experiment: Growth inhibition of human HCT116 cells assessed as cell growth at 3X10'-9 M after 48 hrs by sulforhodamine B assay; details: HCT-116, 48 h, read-out: Activity
[14] = test system: MOLT-4; experiment: Growth inhibition of human MOLT4 cells assessed as cell growth at 3X10'-7 M after 48 hrs by sulforhodamine B assay; details: MOLT-4, 48 h, read-out: Activity
[15] = test system: A498; experiment: Growth inhibition of human A498 cells assessed as cell growth at 3X10'-7 M after 48 hrs by sulforhodamine B assay; details: A498, 48 h, read-out: Activity
[16] = test system: SW-620; experiment: Growth inhibition of human SW620 cells assessed as cell growth at 3X10'-7 M after 48 hrs by sulforhodamine B assay; details: SW-620, 48 h, read-out: Activity
[17] = test system: HT-29; experiment: Growth inhibition of human HT-29 cells assessed as cell growth at 3X10'-8 M after 48 hrs by sulforhodamine B assay; details: HT-29, 48 h, read-out: Activity
[18] = test system: UO-31; experiment: Growth inhibition of human UO31 cells assessed as cell growth at 3X10'-7 M after 48 hrs by sulforhodamine B assay; details: UO-31, 48 h, read-out: Activity
[19] = test system: SK-MEL-28; experiment: Growth inhibition of human SK-MEL-28 cells assessed as cell growth at 3X10'-7 M after 48 hrs by sulforhodamine B assay; details: SK-MEL-28, 48 h, read-out: Activity
[20] = test system: DU-145; experiment: Growth inhibition of human DU145 cells assessed as cell growth at 3X10'-8 M after 48 hrs by sulforhodamine B assay; details: DU-145, 48 h, read-out: Activity
[21] = test system: Malme-3M; experiment: Growth inhibition of human MALME-3M cells assessed as cell growth at 3X10'-7 M after 48 hrs by sulforhodamine B assay; details: read-out: Activity
[22] = test system: TK-10; experiment: Growth inhibition of human TK10 cells assessed as cell growth at 3X10'-6 M after 48 hrs by sulforhodamine B assay; details: TK-10, 48 h, read-out: Activity
[23] = test system: T47D; experiment: Growth inhibition of human T47D cells assessed as cell growth at 3X10'-9 M after 48 hrs by sulforhodamine B assay; details: read-out: Activity
[24] = test system: HOP-92; experiment: Growth inhibition of human HOP92 cells assessed as cell growth at 3X10'-8 M after 48 hrs by sulforhodamine B assay; details: HOP-92, 48 h, read-out: Activity
[25] = test system: HCT-15; experiment: Growth inhibition of human HCT15 cells assessed as cell growth at 3X10'-5 M after 48 hrs by sulforhodamine B assay; details: HCT-15, 48 h, read-out: Activity
[26] = test system: MDA-MB-231; experiment: Growth inhibition of human MDA-MB-231 cells assessed as cell growth at 3X10'-6 M after 48 hrs by sulforhodamine B assay; details: MDA-MB-231, 48 h, read-out: Activity
[27] = test system: SF-268; experiment: Growth inhibition of human SF268 cells assessed as cell growth at 3X10'-6 M after 48 hrs by sulforhodamine B assay; details: SF-268, 48 h, read-out: Activity
[28] = test system: NCI-H322M; experiment: Growth inhibition of human NCI-H322M cells assessed as cell growth at 3X10'-7 M after 48 hrs by sulforhodamine B assay; details: read-out: Activity
[29] = test system: NCI-H23; experiment: Growth inhibition of human NCI-H23 cells assessed as cell growth at 3X10'-5 M after 48 hrs by sulforhodamine B assay; details: NCI-H23, 48 h, read-out: Activity
[30] = test system: SF-295; experiment: Growth inhibition of human SF295 cells assessed as cell growth at 3X10'-5 M after 48 hrs by sulforhodamine B assay; details: SF-295, 48 h, read-out: Activity
[31] = test system: NCI-H226; experiment: Growth inhibition of human NCI-H226 cells assessed as cell growth at 3X10'-9 M after 48 hrs by sulforhodamine B assay; details: NCI-H226, 48 h, read-out: Activity
[32] = Growth inhibition of human Hs 578T cells assessed as cell growth at 3X10'-6 M after 48 hrs by sulforhodamine B assay; details: read-out: Activity
[33] = test system: 786-0; experiment: Growth inhibition of human 786-0 cells assessed as cell growth at 3X10'-8 M after 48 hrs by sulforhodamine B assay; details: 786-0, 48 h, read-out: Activity
[34] = test system: NCI-H226; experiment: Growth inhibition of human NCI-H226 cells assessed as cell growth at 3X10'-5 M after 48 hrs by sulforhodamine B assay; details: NCI-H226, 48 h, read-out: Activity
[35] = test system: HCT-116; experiment: Growth inhibition of human HCT116 cells assessed as cell growth at 3X10'-7 M after 48 hrs by sulforhodamine B assay; details: HCT-116, 48 h, read-out: Activity
[36] = test system: UACC-62; experiment: Growth inhibition of human UACC62 cells assessed as cell growth at 3X10'-6 M after 48 hrs by sulforhodamine B assay; details: UACC-62, 48 h, read-out: Activity

Compound	growth at 0.05 µM [1] [%]	growth at 0.003 µM [2] [%]	growth at 0.003 µM [3] [%]	growth at 30 µM [4] [%]	growth at 3 µM [5] [%]	growth at 0.3 µM [6] [%]	growth at 0.3 µM [7] [%]	growth at 0.03 µM [8] [%]	growth at 0.3 µM [9] [%]	growth at 30 µM [10] [%]	growth at 3 µM [11] [%]	growth at 30 µM [12] [%]	growth at 0.003 µM [13] [%]	growth at 0.3 µM [14] [%]	growth at 0.3 µM [15] [%]	growth at 0.3 µM [16] [%]	growth at 0.03 µM [17] [%]	growth at 0.3 µM [18] [%]	growth at 0.3 µM [19] [%]	growth at 0.03 µM [20] [%]	further results
COc1cc(-c2nn(-c3cccc(NC(=O)Nc4cc(C(F)(F)F)cc(C(F)(F)F)c4)c3)cc2-c2ccncc2)ccc1Cl	100																				
COc1cc(-c2nn(-c3cccc(NC(=O)Nc4ccc(Cl)c(C(F)(F)F)c4)c3)cc2-c2ccncc2)ccc1Cl		92	104	-5	11	91	111	103	70	-48	-11	-20	102	90	76	100	106	85	95	105	growth at 0.3 µM [21]: 96%; growth at 3 µM [22]: 25%; growth at 0.003 µM [23]: 101%; growth at 0.03 µM [24]: 74%; growth at 30 µM [25]: -35%; growth at 3 µM [26]: -9%; growth at 3 µM [27]: 25%; growth at 0.3 µM [28]: 91%; growth at 30 µM [29]: -16%; growth at 30 µM [30]: -70%; growth at 0.003 µM [31]: 99%; growth at 3 µM [32]: 25%; growth at 0.03 µM [33]: 102%; growth at 30 µM [34]: 3%; growth at 0.3 µM [35]: 99%; growth at 3 µM [36]: -21%
O=C(Nc1cccc(-n2cc(-c3ccncc3)c(-c3ccc(Cl)c(O)c3)n2)c1)Nc1cc(C(F)(F)F)cc(C(F)(F)F)c1	101																				
O=C(Nc1cccc(-n2cc(-c3ccncc3)c(-c3ccc(Cl)c(O)c3)n2)c1)Nc1ccc(Cl)c(Cl)c1		93	100	8	13	101	111	97	86	-27	6	1	94	101	94	101	104	93	97	100	growth at 0.3 µM [21]: 102%; growth at 3 µM [22]: 31%; growth at 0.003 µM [23]: 97%; growth at 0.03 µM [24]: 93%; growth at 30 µM [25]: -1%; growth at 3 µM [26]: 15%; growth at 3 µM [27]: 23%; growth at 0.3 µM [28]: 113%; growth at 30 µM [29]: -1%; growth at 0.003 µM [31]: 98%; growth at 3 µM [32]: -1%; growth at 0.03 µM [33]: 96%; growth at 30 µM [34]: 12%; growth at 0.3 µM [35]: 99%; growth at 3 µM [36]: 14%
COc1cc(-c2nn(-c3cccc(NC(=O)Nc4ccc(Cl)c(Cl)c4)c3)cc2-c2ccncc2)ccc1Cl	102																				
COc1cc(-c2nn(-c3cccc(NC(=O)c4ccc(Cl)c(C(F)(F)F)c4)c3)cc2-c2ccncc2)ccc1Cl		93	97	16	44	93	96	97	73	29	31	11	100	98	82	91	99	47	95	100	growth at 0.3 µM [21]: 88%; growth at 3 µM [22]: 74%; growth at 0.003 µM [23]: 95%; growth at 0.03 µM [24]: 85%; growth at 30 µM [25]: 25%; growth at 3 µM [26]: 27%; growth at 3 µM [27]: 56%; growth at 0.3 µM [28]: 92%; growth at 30 µM [29]: 17%; growth at 30 µM [30]: -10%; growth at 0.003 µM [31]: 92%; growth at 3 µM [32]: 43%; growth at 0.03 µM [33]: 96%; growth at 30 µM [34]: 23%; growth at 0.3 µM [35]: 100%; growth at 3 µM [36]: 40%
COc1cc(-c2nn(-c3cccc(NC(=O)c4cccc(C(F)(F)F)c4)c3)cc2-c2ccncc2)ccc1Cl	100																				
COc1cc(-c2nn(-c3cccc(NC(=O)Nc4cccc(C(F)(F)F)c4)c3)cc2-c2ccncc2)ccc1Cl	102																				
